#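 Cells were grown in 96-well plates and exposed to each compound for 48 hours at five concentrations; endpoints were interpolated linearly between bracketing concentrations, or set to the highest concentration if not reached. TGI: total growth inhibition.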
# Legend:
# Assay in all cases: DTP human tumour cell line panel, 48 h
# 786-0 renal = test system: 786-0 renal
# A498 renal = test system: A498 renal
# A549 NSCLC = test system: A549 NSCLC
# ACHN renal = test system: ACHN renal
# BT-549 breast = test system: BT-549 breast
# CAKI-1 renal = test system: CAKI-1 renal
# COLO 205 colon = test system: COLO 205 colon
# DU-145 prostate = test system: DU-145 prostate
# EKVX NSCLC = test system: EKVX NSCLC
# HCT-116 colon = test system: HCT-116 colon
# HCT-15 colon = test system: HCT-15 colon
# HL-60(TB) leukemia = test system: HL-60(TB) leukemia
# HOP-62 NSCLC = test system: HOP-62 NSCLC
# HOP-92 NSCLC = test system: HOP-92 NSCLC
# HS 578T breast = test system: HS 578T breast
# HT29 colon = test system: HT29 colon
# IGROV1 ovarian = test system: IGROV1 ovarian
# K-562 leukemia = test system: K-562 leukemia
# KM12 colon = test system: KM12 colon
# LOX IMVI melanoma = test system: LOX IMVI melanoma
# M14 melanoma = test system: M14 melanoma
# MALME-3M melanoma = test system: MALME-3M melanoma
# MCF7 breast = test system: MCF7 breast
# MDA-MB-231 breast = test system: MDA-MB-231 breast
# MDA-MB-435 = test system: MDA-MB-435
# MDA-N = test system: MDA-N
# MOLT-4 leukemia = test system: MOLT-4 leukemia
# NCI-H226 lung = test system: NCI-H226 lung
# NCI-H23 lung = test system: NCI-H23 lung
# NCI-H460 lung = test system: NCI-H460 lung
# NCI-H522 lung = test system: NCI-H522 lung
# NCI/ADR-RES ovarian = test system: NCI/ADR-RES ovarian
# OVCAR-3 ovarian = test system: OVCAR-3 ovarian
# OVCAR-4 ovarian = test system: OVCAR-4 ovarian
# OVCAR-5 ovarian = test system: OVCAR-5 ovarian
# OVCAR-8 ovarian = test system: OVCAR-8 ovarian
# PC-3 prostate = test system: PC-3 prostate
# RPMI-8226 leukemia = test system: RPMI-8226 leukemia
# RXF 393 renal = test system: RXF 393 renal
# SF-268 CNS = test system: SF-268 CNS
# SF-295 CNS = test system: SF-295 CNS
# SF-539 CNS = test system: SF-539 CNS
# SK-MEL-2 melanoma = test system: SK-MEL-2 melanoma
# SK-MEL-28 melanoma = test system: SK-MEL-28 melanoma
# SK-MEL-5 melanoma = test system: SK-MEL-5 melanoma
# SK-OV-3 ovarian = test system: SK-OV-3 ovarian
# SN12C renal = test system: SN12C renal
# SNB-19 CNS = test system: SNB-19 CNS
# SNB-75 CNS = test system: SNB-75 CNS
# SR leukemia = test system: SR leukemia
# SW-620 colon = test system: SW-620 colon
# T-47D breast = test system: T-47D breast
# TK-10 renal = test system: TK-10 renal
# U251 CNS = test system: U251 CNS
# UACC-257 melanoma = test system: UACC-257 melanoma
# UACC-62 melanoma = test system: UACC-62 melanoma
# UO-31 renal = test system: UO-31 renal
structure (smiles),measurement,setting,value
CN(C)c1ccccc1CN1CCCN(Cc2ccccc2N(C)C)C1c1ccncc1,TGI,786-0 renal,32.2 µM
same,TGI,A498 renal,24.8 µM
same,TGI,A549 NSCLC,40.7 µM
same,TGI,ACHN renal,99.2 µM
same,TGI,BT-549 breast,34.6 µM
same,TGI,CAKI-1 renal,34.6 µM
same,TGI,COLO 205 colon,30.3 µM
same,TGI,DU-145 prostate,31.5 µM
same,TGI,EKVX NSCLC,38 µM
same,TGI,HCT-116 colon,23.3 µM
same,TGI,HCT-15 colon,51.7 µM
same,TGI,HL-60(TB) leukemia,32.4 µM
same,TGI,HOP-62 NSCLC,30.3 µM
same,TGI,HOP-92 NSCLC,14.8 µM
same,TGI,HS 578T breast,41.8 µM
same,TGI,HT29 colon,26.5 µM
same,TGI,IGROV1 ovarian,28.1 µM
same,TGI,K-562 leukemia,23.9 µM
same,TGI,KM12 colon,41.7 µM
same,TGI,LOX IMVI melanoma,28.4 µM
same,TGI,M14 melanoma,8.62 µM
same,TGI,MALME-3M melanoma,23.4 µM
same,TGI,MCF7 breast,29.6 µM
same,TGI,MDA-MB-231 breast,51.5 µM
same,TGI,MDA-MB-435,20.2 µM
same,TGI,MDA-N,23.8 µM
same,TGI,MOLT-4 leukemia,43.6 µM
same,TGI,NCI-H226 lung,38.7 µM
same,TGI,NCI-H23 lung,43 µM
same,TGI,NCI-H460 lung,28.5 µM
same,TGI,NCI-H522 lung,32.5 µM
same,TGI,NCI/ADR-RES ovarian,58 µM
same,TGI,OVCAR-3 ovarian,28 µM
same,TGI,OVCAR-4 ovarian,33 µM
same,TGI,OVCAR-5 ovarian,40.9 µM
same,TGI,OVCAR-8 ovarian,29 µM
same,TGI,PC-3 prostate,> 100 µM
same,TGI,RPMI-8226 leukemia,32.1 µM
same,TGI,RXF 393 renal,22.4 µM
same,TGI,SF-268 CNS,37.9 µM
same,TGI,SF-295 CNS,29.8 µM
same,TGI,SF-539 CNS,36 µM
same,TGI,SK-MEL-2 melanoma,36.5 µM
same,TGI,SK-MEL-28 melanoma,23.7 µM
same,TGI,SK-MEL-5 melanoma,18.3 µM
same,TGI,SK-OV-3 ovarian,32.9 µM
same,TGI,SN12C renal,62.2 µM
same,TGI,SNB-19 CNS,33 µM
same,TGI,SNB-75 CNS,32.1 µM
same,TGI,SR leukemia,21.7 µM
same,TGI,SW-620 colon,42.2 µM
same,TGI,T-47D breast,38.7 µM
same,TGI,TK-10 renal,28.4 µM
same,TGI,U251 CNS,> 100 µM
same,TGI,UACC-257 melanoma,7.98 µM
same,TGI,UACC-62 melanoma,27.6 µM
same,TGI,UO-31 renal,13.9 µM
